From patent US20070032521A1, “Use of c-kit inhibitors for treating type II diabetes” (AB Science, priority 2003, published 2007)

Columns and labels:
[1] = target: T1, purified intracellular domain of c-kit (Homo sapiens, UniProt P10721); assay: in vitro TK inhibition assay (ELISA, phosphorylation of tyrosine containing target peptide); format: biochemical; settings: purified intracellular domain of c-kit expressed in baculovirus
T1 construct: purified intracellular domain of c-kit expressed in baculovirus; made in house
T1 sequence (P10721 546-976 limits assumed): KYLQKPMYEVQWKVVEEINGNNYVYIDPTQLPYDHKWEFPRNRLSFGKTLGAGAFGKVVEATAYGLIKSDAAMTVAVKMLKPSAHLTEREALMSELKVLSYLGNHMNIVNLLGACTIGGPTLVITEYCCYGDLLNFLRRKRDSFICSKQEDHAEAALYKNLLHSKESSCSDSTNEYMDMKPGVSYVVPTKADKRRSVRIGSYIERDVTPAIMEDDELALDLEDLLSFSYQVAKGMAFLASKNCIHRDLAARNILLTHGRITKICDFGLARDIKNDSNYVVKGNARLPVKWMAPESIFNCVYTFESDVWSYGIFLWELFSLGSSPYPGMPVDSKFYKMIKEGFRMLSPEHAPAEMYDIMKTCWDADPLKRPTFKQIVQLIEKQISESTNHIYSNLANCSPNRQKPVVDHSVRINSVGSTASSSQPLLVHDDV
Experimental: in vitro TK Inhibition Assays
Experiments were performed using purified intracellular domain of c-kit expressed in baculovirus. Estimation of the kinase activity was assessed by the phosphoiylation of tyrosine containing target peptide estimated by established ELISA assay.

male db/db mice = assay: Effect of c-kit inhibitors on serum glucose, insulin, triglycerides, cholesterol and NEFA levels in db/db mice; format: in vivo, mouse
Text: Effect of different c-kit inhibitors on serum glucose, insulin, triglycerides, cholesterol and non esterified fatty acids levels in db/db mice
The objective of this study is to assess the effects of different c-kit inhibitors on serum glucose, insulin, triglycerides, cholesterol and non esterified fatty acids levels in male db/db mice dosed orally, once-a-day, for 5 days.
30 male 9/11 weeks old C57BL/Ks J Rj-db (db/db) mice (Janvier, France or Harlan, France), weighing in the target range of 30 to 50 g, will be included in this study.
One to three days before beginning the treatments (T0), mice will be weighed and blood samples will be collected through the retro-orbital plexus under isoflurane anesthesia. Blood samples will be kept at room temperature for 5 to 10 min to form a spontaneous clot, then put in ice until they are centrifuged at 3500×g for 10-15 min at 4° C. An aliquot of serum will be used for measuring glucose levels.
Six groups of 5 mice will be formed with respect to homogeneous glycemia values by using a randomization table. Animal showing glycemia below 20 mM will be excluded from the study.
From T1 to T5, the mice will be weighed and dosed once daily for 5 consecutive days at constant time.
At T5, 2 hours after the last administration, blood samples will be collected through the retro-orbital plexus under isoflurane anesthesia. Blood samples will be kept at room temperature for 5 to 10 min to form a spontaneous clot, then put in ice until they are centrifuged at 3500×g for 10 min at 4° C. Serum will be aliquoted and frozen at −20° C. until use. After blood collection, the mice will be euthanized by cervical dislocation.
Serum glucose and triglycerides levels will be determined using the Synchron C×4 analyzer. Serum non esterified fatty acids levels will be measured manually using a colorimetric method, and insulin levels determined by ELISA.
The results will be expressed as mean±SEM: • Glucose levels (mM) at T5 • Insulin levels (nM) at T5 • Triglycerides levels (mM) at T5 • Non esterified fatty acids levels (mM) at T5
For each parameter, a % of effect will be calculated according to following formula: ((vehicle group−test group)/vehicle group)*100
Statistical analysis will consist in a one-way analysis of variance followed by multiple comparisons versus the vehicle group (Dunnett's test). In case the equal variance test fails, a Kruskall-Wallis one-way analysis of variance on ranks will be proposed. A difference will be considered significant for p<0.05.

[2] = as compared to vehicle, 10 mg/kg p.o. for 5 days
[3] = serum, male db/db mice, 10 mg/kg p.o. once daily for 5 days, T5, mean ± SEM, n = 5

| Structure (SMILES) | IC50 [1] | melting point | also measured |
| --- | --- | --- | --- |
| Cc1ccc(NC(=O)c2ccc(C(C)(C)C)cc2)cc1Nc1nc(-c2cccnc2)cs1 [Compound 049, 4-tert-Butyl-N-[4-methyl-3-(4-pyridin-3-yl-thiazol-2-ylamino)-phenyl]-benzamide] | < 10 µM | 145 to 150 °C | – |
| Cc1ccc(NC(=O)Nc2ccc(OC(F)F)cc2)cc1Nc1nc(-c2cccnc2)cs1 [Compound 021, 1-(4-Difluoromethoxy-phenyl)-3-[4-methyl-3-(4-pyridin-3-yl-thiazol-2-ylamino)-phenyl]-urea] | < 10 µM | – | – |
| Cc1ccc(NC(=O)c2cccc(F)c2)cc1Nc1nc(-c2cccnc2)cs1 [Compound 045, 3-Fluoro-N-[4-methyl-3-(4-pyridin-3-yl-thiazol-2-ylamino)-phenyl]-benzamide] | – | 184 to 186 °C | – |
| Cc1ccc(NC(=O)c2ccc3c(c2)OCO3)cc1Nc1nc(-c2cccnc2)cs1 [Compound 051] | < 10 µM | 130 to 132 °C | – |
| Cc1ccc(NC(=O)c2ccc(-c3ccncc3)cc2)cc1Nc1nc(-c2cccnc2)cs1 [Compound 046, N-[4-Methyl-3-(4-pyridin-3-yl-thiazol-2-ylamino)-phenyl]-4-pyridin-4-yl-benzamide] | – | 254 to 256 °C | – |
| Cc1ccc(NC(=O)N(C(=O)NC2CCCCC2)C2CCCCC2)cc1Nc1nc(-c2cccnc2)cs1 [Compound 016, 1-Cyclohexyl-1-(N-Cyclohexyl-formamide)-3-[4-methyl-3-(4-pyridin-3-yl-thiazol-2-ylamino)-phenyl]-urea] | < 10 µM | – | – |
| Cc1ccc(NC(=O)c2ccc(CN3CCN(C)CC3)c(C(F)(F)F)c2)cc1Nc1nc(-c2cccnc2)cs1 [Compound 075] | < 10 µM | 118 to 120 °C | – |
| Cc1ccc(NC(=O)Nc2ccc(F)cc2)cc1Nc1nc(-c2cccnc2)cs1 [Compound 012, 1-(4-Fluoro-phenyl)-3-[4-methyl-3-(4-pyridin-3-yl-thiazol-2-ylamino)-phenyl]-urea] | < 10 µM | – | – |
| Cc1ccc(NC(=O)Nc2ccc(C)c(Nc3nc(-c4cccnc4)cs3)c2)cc1 [Compound 026, 1-[4Methyl-3-(4-pyridin-3-yl-thiazol-2-ylamino)-phenyl]-3-p-tolyl-urea] | < 10 µM | 210 to 215 °C | – |
| Cc1ccc(NC(=O)c2ccc(N(C)C)cc2)cc1Nc1nc(-c2cccnc2)cs1 [Compound 047, 4-Dimethylamino-N-[4-methyl-3-(4-pyridin-3-yl-thiazol-2-ylamino)-phenyl]-benzamide] | < 10 µM | – | – |
| Cc1ccc(NC(=O)c2ccc(CNC(=O)OC(C)(C)C)cc2)cc1Nc1nc(-c2cccnc2)cs1 [Compound 073, {4-[4-Methyl-3-(4-pyridin-3-yl-thiazol-2-ylamino)-phenylcarbamoyl]-benzyl}-carbamic acid tert-butyl ester] | < 10 µM | – | – |
| Cc1ccc(NC(=O)Nc2cccc(F)c2)cc1Nc1nc(-c2cccnc2)cs1 [Compound 025, 1-(3-Fluoro-phenyl)-3-[4-methyl-3-(4-pyridin-3-yl-thiazol-2-ylamino)-phenyl]-urea] | < 10 µM | 210 to 215 °C | – |
| Cc1ccc(F)c(C(=O)Nc2ccc(C)c(Nc3nc(-c4cccnc4)cs3)c2)c1 [Compound 048, 2-Fluoro-5-methyl-N-[4-methyl-3-(4-pyridin-3-yl-thiazol-2-ylamino)-phenyl]-benzamide] | < 10 µM | 103 to 106 °C | – |
| Cc1ccc(NC(=O)c2cccc(OCCN3CCOCC3)c2)cc1Nc1nc(-c2cccnc2)cs1 [Compound 052] | < 10 µM | 75 to 80 °C | – |
| CN(CCOc1ccc(CC2SC(=O)NC2=O)cc1)c1ccccn1 (centres unmarked) [Rosiglitazone, rosiglitazone] | – | – | Cholesterol Effect (%) (male db/db mice; [2]): 19%; Glucose Effect (%) (male db/db mice; [2]): 59%; Insulin Effect (%) (male db/db mice; [2]): 77%; NEFA Effect (%) (male db/db mice; [2]): 63%; Triglycerides Effect (%) (male db/db mice; [2]): 71%; NEFA (male db/db mice; serum non esterified fatty acids, male db/db mice, 10 mg/kg p.o. once daily for 5 days, T5, mean ± SEM, n = 5): 0.31 ± 0.061 mM; Cholesterol (male db/db mice; [3]): 2.74 ± 0.47 mM; Glucose (male db/db mice; [3]): 11.25 ± 2.65 mM; Insulin (male db/db mice; [3]): 0.82 ± 0.27 nM; Triglycerides (male db/db mice; [3]): 0.46 ± 0.10 mM |
| Cc1ccc(NC(=O)c2ccc(NS(=O)(=O)c3cccs3)cc2)cc1Nc1nc(-c2cccnc2)cs1 [Compound 044, N-[4Methyl-3-(4-pyridin-3-yl-thiazol-2-ylamino)-phenyl]-4-(thiophene-2-sulfonylamino)-benzamide] | – | 230 to 233 °C | – |

Continued, in another order:

| IC50 [1] | melting point | Structure (SMILES) | also measured |
| --- | --- | --- | --- |
| < 10 µM | 116 to 120 °C | Cc1ccc(NC(=O)CCCN2CCOCC2)cc1Nc1nc(-c2cccnc2)cs1 [Compound 096, N-[4-Methyl-3-(4-pyridin-3-yl-thiazol-2-ylamino)-phenyl]-4-morpholin-4-yl-butyramide] | – |
| < 10 µM | – | Cc1ccc(NC(=O)c2cccc(N3CCN(C)CC3)c2)cc1Nc1nc(-c2cccnc2)cs1 [Compound 089, 3-(4-Methyl-piperazin-1-yl)-N-[4-methyl-3-(4-pyridin-3-yl-thiazol-2-ylamino)-phenyl]-benzamide] | – |
| < 10 µM | 247 to 248 °C | Cc1ccc(NC(=O)c2cccc(N3CCOCC3)c2)cc1Nc1nc(-c2cccnc2)cs1 [Compound 090, N-[4-Methyl-3-(4-pyridin-3-yl-thiazol-2-ylamino)-phenyl]-3-morpholin-4-yl-benzamide] | – |
| < 10 µM | – | Cc1cncc(-c2csc(Nc3cc(NC(=O)c4ccc(CN5CCN(C)CC5)cc4)ccc3C)n2)c1 [Compound 084, N-{4-Methyl-3-[4-(5-methyl-pyridin-3-yl)-thiazol-2-ylamino]-phenyl}-4-(4-methyl-piperazin-1-ylmethyl)-benzamide] | – |
| < 10 µM | 197 to 198 °C | Cc1ccc(NC(=O)c2cccc(N(C)C)c2)cc1Nc1nc(-c2cccnc2)cs1 [Compound 088, 3-Dimethylamino-N-[4-methyl-3-(4-pyridin-3-yl-thiazol-2-ylamino)-phenyl]-benzamide] | – |
| < 10 µM | – | Cc1ccc(NC(=O)c2ccc(CN3CCN(C)CC3)c(Br)c2)cc1Nc1nc(-c2cccnc2)cs1 [Compound 078, 3-Bromo-4-(4-methyl-piperazin-1-ylmethyl)-N-[4-methyl-3-(4-pyridin-3-yl-thiazol-2-ylamino)-phenyl]-benzamide] | – |
| < 10 µM | – | Cc1ccc(NC(=O)c2cc(Br)c(CNCCCN3CCOCC3)c(Br)c2)cc1Nc1nc(-c2cccnc2)cs1 [Compound 087, 3,5-Dibromo-N-[4-methyl-3-(4-pyridin-3-yl-thiazol-2-ylamino)-phenyl]-4-[(3-morpholin-4-yl-propylamino)-methyl]-benzamide] | – |
| < 10 µM | 153 to 155 °C | Cc1ccc(NC(=O)c2ccc(C(C)N3CCN(C)CC3)cc2)cc1Nc1nc(-c2cccnc2)cs1 (centres unmarked) [Compound 082] | – |
